This passage reports EC50, EC90 and CC50 results from PubChem BioAssay AID806 (SRMLSC, 2007).

Broadly, the EC50 is the concentration needed to bring the measured effect to its halfway point. By EC90 is commonly meant the concentration needed for an effect of 90%. Lower therefore signals greater potency. Usually CC50 stands for the concentration at which the toxic effect on the cells reaches its halfway point. Lower therefore signals greater toxicity to the cells.

For the assay, the system named is virus-infected cells, CPE inhibition, dose response. Briefly: PubChem AID 806. The settings on record: for EC90: measured here: EC90 CPE inhibition; for CC50: measured here: cytotoxicity, cell viability IC50.

The structures appear in SMILES notation. Calls of active or inactive are those of the source. The rule behind the calls is not given here. Where only a bound is given, the exact number is not on record here.

Regarding `Cc1noc(C)c1CSc1nc2sc(C)c(C)c2c(=O)n1C1CCCC1`, the EC50 is > 60 µM (inactive), the concentration for an effect of 90% (EC90) was over 60 µM and the CC50 amounted to 10 µM.

In the case of `O=C1c2ccccc2-c2onc3ccc(Oc4ccccc4)c1c23`, the EC50 was > 60 µM (inactive), the EC90 was over 60 µM and the CC50 came to 17.7 µM.

`O=C(O)c1ccc(CN2C(=O)CSC2=S)cc1`: the EC50 is > 60 µM (inactive), the EC90 is over 60 µM and the CC50 is over 60 µM.

For `COc1cccc(C2=NOC(C(=O)Nc3cc(C)nn3-c3ccccc3)C2)c1OC` (stereo not drawn), the EC50 was > 60 µM (inactive), the EC90 was over 60 µM and the cytotoxic concentration (CC50) was over 60 µM.

For the compound `Cc1nc2ccc(NC(=O)C3CCN(S(=O)(=O)c4cccs4)CC3)cc2s1`, the EC50 is > 60 µM (inactive), the 90% effect concentration (EC90) is over 60 µM and the cytotoxic concentration (CC50) was over 60 µM.

As for `COc1ccc(OC)c(-n2c(SCC(=O)NCc3ccco3)nnc2-c2c[nH]c3ccccc23)c1`, the EC50 was > 60 µM (inactive), the EC90 is over 60 µM and the CC50 is over 60 µM.

As for `O=C(Nc1ccc(Cl)cn1)c1cc2ccccc2o1`, the EC50 is > 60 µM (inactive), the EC90 is over 60 µM and the CC50 was over 60 µM.

Take `COc1ccc(NC(=O)C2CC(=O)OC23CCOC(C)(C)C3)cc1` (stereo not drawn): the EC50 is > 60 µM (inactive), the EC90 is over 60 µM and the cytotoxic concentration (CC50) was over 60 µM.

`COc1ccccc1Cn1c(=O)c2ccccc2n2c(SCC(=O)N3CCCCC3)nnc12`: the EC50 is > 60 µM (inactive), the EC90 is over 60 µM and the CC50 is over 60 µM.

Take `CCSc1nnc(-c2ccc(Cl)cc2Cl)o1`: the EC90 is over 60 µM and the half-maximal cytotoxic concentration (CC50) worked out at 43.7 µM.

Regarding `COc1ccc(-c2nnc(SCC#N)o2)cc1`, the EC50 was > 60 µM (inactive), the EC90 is over 60 µM and the CC50 worked out at 19.7 µM.

On to `C=CCSc1nnc(-c2cccnc2)o1`, for which the concentration for an effect of 90% (EC90) is over 60 µM and the cytotoxic concentration (CC50) is over 60 µM.

`O=C(Nc1nc(-c2ccccc2)cs1)C1CCCCN1S(=O)(=O)c1ccccc1` (stereo not drawn): the EC50 is > 60 µM (inactive), the EC90 is over 60 µM and the CC50 was over 60 µM.

Take `CCOc1ccc(NC(=O)CCS(=O)(=O)c2cccc3nsnc23)cc1`: the EC50 was > 60 µM (inactive), the EC90 was over 60 µM and the 50% cytotoxic concentration (CC50) was over 60 µM.

In the case of `O=C(Cn1cnc2ccccc2c1=O)N(Cc1ccco1)c1ccc(O)cc1`, the EC50 was > 60 µM (inactive), the EC90 is over 60 µM and the cytotoxic concentration (CC50) was over 60 µM.

Take `Cc1ccc(S(=O)(=O)N2CCCCC2C(=O)N2CCN(C)CC2)cc1` (stereo not drawn): the EC50 was > 60 µM (inactive), the EC90 is over 60 µM and the CC50 was over 60 µM.

For the compound `CCN(CC)S(=O)(=O)c1ccc(C(=O)NCc2ccc(C)cc2)cc1`, the EC50 was > 60 µM (inactive), the concentration for an effect of 90% (EC90) was over 60 µM and the CC50 was over 60 µM.

With `Cc1cc(C(=O)NCc2ccccc2)c(=O)[nH]c1C`, the EC50 is > 60 µM (inactive), the EC90 is over 60 µM and the CC50 was over 60 µM.

As to `COc1ccc(OC)c(-n2c(SCC(N)=O)nnc2-c2c[nH]c3ccccc23)c1`, the EC50 was > 60 µM (inactive), the EC90 is over 60 µM and the CC50 was over 60 µM.

`CCOc1ccccc1Nc1ncnc2c1cnn2-c1ccccc1`: the EC50 is > 60 µM (inactive), the EC90 was over 60 µM and the CC50 was over 60 µM.

Regarding `CCCCN(C(=O)Cn1nnc2ccccc21)C(C(=O)NCCOC)c1ccc(OC)cc1` (stereo not drawn), the EC50 was > 60 µM (inactive), the EC90 was over 60 µM and the CC50 was over 60 µM.

Regarding `NS(=O)(=O)c1ccc(CCNC(=O)C2CCCCN2S(=O)(=O)c2ccccc2)cc1` (stereo not drawn), the EC50 is > 60 µM (inactive), the EC90 is over 60 µM and the 50% cytotoxic concentration (CC50) is over 60 µM.

With `Cc1sc2nc3c4ccccc4c(NCc4ccco4)nn3c(=O)c2c1C`, the EC50 is > 60 µM (inactive), the EC90 is over 60 µM and the CC50 was 4.2 µM.

With `O=C1/C(=C\c2ccco2)SC(=S)N1Cc1ccccc1`, the EC50 was > 60 µM (inactive), the EC90 was over 60 µM and the cytotoxic concentration (CC50) was determined as 6.46 µM.

Consider `CC(C)NC(=O)CN1CCN(c2ncccn2)CC1`, for which the EC50 is > 60 µM (inactive), the EC90 is over 60 µM and the CC50 was over 60 µM.

As for `CCN(c1ccccc1)c1ncnc2c1cnn2-c1ccccc1`, the EC50 is > 60 µM (inactive), the EC90 was over 60 µM and the CC50 is over 60 µM.

For the compound `CC(c1ccco1)N(C(=O)CSc1ccc(Br)cc1)c1ccccn1` (stereo not drawn), the EC50 was > 60 µM (inactive), the EC90 was over 60 µM and the CC50 was over 60 µM.

As for `O=C(Nc1cccc(O)c1)c1noc2c1CCc1ccccc1-2`, the EC50 was > 60 µM (inactive), the concentration for an effect of 90% (EC90) is over 60 µM and the CC50 was over 60 µM.

For the compound `COc1ccc(C)cc1NC(=O)c1cc2ccccc2o1`, the EC50 is > 60 µM (inactive), the EC90 is over 60 µM and the cytotoxic concentration (CC50) is over 60 µM.

Regarding `CCOC(=O)CN(C(=O)Cn1nnc2ccccc21)C(C(=O)NCCOC)c1ccccc1C` (stereo not drawn), the EC50 is > 60 µM (inactive), the concentration for an effect of 90% (EC90) was over 60 µM and the CC50 is over 60 µM.

On to `O=C(NC1CCS(=O)(=O)C1)C1CCCCN1S(=O)(=O)c1ccc(Cl)cc1` (stereo not drawn), for which the EC50 was > 60 µM (inactive), the concentration for an effect of 90% (EC90) was over 60 µM and the 50% cytotoxic concentration (CC50) is over 60 µM.

On to `O=C(c1cnn2c(C(F)F)cc(-c3ccccc3)nc12)N1CCOCC1`, for which the EC50 was > 60 µM (inactive), the EC90 is over 60 µM and the 50% cytotoxic concentration (CC50) was over 60 µM.

Turning to `COc1ccc(S(=O)(=O)Nc2ccc(C)cc2)cc1N(C)S(=O)(=O)c1ccc(Cl)cc1`, the EC50 is > 60 µM (inactive), the EC90 is over 60 µM and the CC50 is over 60 µM.

Take `CCOc1ccccc1NC(=O)C1CCCCN1S(=O)(=O)c1ccc(F)cc1` (stereo not drawn): the EC50 is > 60 µM (inactive), the concentration for an effect of 90% (EC90) is over 60 µM and the CC50 was over 60 µM.

Consider `CCOC(=O)CN(C(=O)Cn1nnc2ccccc21)C(C(=O)NCCOC)c1ccccc1` (stereo not drawn), for which the EC50 is > 60 µM (inactive), the EC90 was over 60 µM and the 50% cytotoxic concentration (CC50) is over 60 µM.

As for `Cc1cccc(NC(=O)C2CC(=O)OC23CCCC3)c1` (stereo not drawn), the EC50 was > 60 µM (inactive), the EC90 is over 60 µM and the CC50 was over 60 µM.

For the compound `O=C(NCc1ccccc1)c1ccc(S(=O)(=O)N2CCCC2)cc1`, the EC50 is > 60 µM (inactive), the EC90 is over 60 µM and the CC50 was over 60 µM.

Consider `CCC(C)NC(=O)C1CCCCN1S(=O)(=O)c1ccc(F)cc1` (stereo not drawn), for which the EC50 was > 60 µM (inactive), the EC90 was over 60 µM and the CC50 was over 60 µM.

`CCSc1nnc(-c2ccncc2)o1`: the EC50 was > 60 µM (inactive), the 90% effect concentration (EC90) was over 60 µM and the CC50 is over 60 µM.

As to `Cc1ccc(C2NC(=O)NC3=C2CCc2ccccc23)cc1` (stereo not drawn), the half-maximal effective concentration (EC50) was 1.75 µM, the EC90 was over 60 µM and the 50% cytotoxic concentration (CC50) was over 60 µM.

On to `COc1ccc(NC(=O)C2CC(=O)OC23CCCCC3)cc1` (stereo not drawn), for which the EC50 was > 60 µM (inactive), the EC90 was over 60 µM and the half-maximal cytotoxic concentration (CC50) is over 60 µM.

Take `NC(=O)CSc1nnc2sc3ccccc3n12`: the EC50 was > 60 µM (inactive), the concentration for an effect of 90% (EC90) is over 60 µM and the CC50 is over 60 µM.

With `CCOc1ccc(-c2nnc3ccc(SCC(=O)NCc4ccco4)nn23)cc1`, the EC50 was > 60 µM (inactive), the EC90 is over 60 µM and the CC50 was over 60 µM.

For the compound `Cc1ccc(NC(=O)C2CC(=O)OC23CCOC(C)(C)C3)cc1` (stereo not drawn), the EC50 is > 60 µM (inactive), the EC90 was over 60 µM and the CC50 was over 60 µM.

Turning to `CC(C)c1ccc(C2NC(=O)NC3=C2CCc2ccccc23)cc1` (stereo not drawn), the EC50 is > 60 µM (inactive), the 90% effect concentration (EC90) is over 60 µM and the CC50 was over 60 µM.

In the case of `COc1ccc(C(=O)C(CN2CCOCC2)c2ccccc2)cc1F` (stereo not drawn), the EC50 was > 60 µM (inactive), the EC90 was over 60 µM and the CC50 was over 60 µM.

Regarding `Cc1cc(NC(=O)C2CC(c3ccc(F)cc3)=NO2)n(-c2ccccc2)n1` (stereo not drawn), the EC50 is > 60 µM (inactive), the concentration for an effect of 90% (EC90) was over 60 µM and the CC50 was over 60 µM.

For the compound `C#CCSc1nnc(-c2ccc(OC)cc2)o1`, the EC50 is > 60 µM (inactive), the 90% effect concentration (EC90) was over 60 µM and the cytotoxic concentration (CC50) was over 60 µM.

Regarding `CC(=O)c1cccc(NC(=O)CCS(=O)(=O)c2cccc3nsnc23)c1`, the EC50 is > 60 µM (inactive), the EC90 was over 60 µM and the CC50 was over 60 µM.

As to `CC(c1ccco1)N(C(=O)COc1ccc(Cl)cc1)c1ccccn1` (stereo not drawn), the EC50 is > 60 µM (inactive), the EC90 was over 60 µM and the 50% cytotoxic concentration (CC50) was over 60 µM.

For `O=C(c1noc2c1CCc1ccccc1-2)N1CCOCC1`, the EC50 was > 60 µM (inactive), the EC90 was over 60 µM and the half-maximal cytotoxic concentration (CC50) is over 60 µM.

As for `COc1ccc(Nc2ncnc3c2cnn3-c2ccccc2)cc1OC`, the EC50 was > 60 µM (inactive), the EC90 is over 60 µM and the CC50 is over 60 µM.

As to `O=C(c1cc(-c2ccc(Cl)cc2)n(-c2ccc(Cl)c(Cl)c2)n1)N1CCOCC1`, the EC50 is > 60 µM (inactive), the EC90 is over 60 µM and the cytotoxic concentration (CC50) was 3.62 µM.

Consider `COc1ccccc1Cn1c(=O)[nH]c2cccnc21`, for which the EC50 is > 60 µM (inactive), the concentration for an effect of 90% (EC90) is over 60 µM and the CC50 is over 60 µM.

As to `Cc1ccc(NC(=O)c2noc3c2CCc2ccccc2-3)cc1`, the EC50 is > 60 µM (inactive), the 90% effect concentration (EC90) is over 60 µM and the half-maximal cytotoxic concentration (CC50) was over 60 µM.
